# Reference: US9000045B2, “CETP activity inhibitors” (Japan Tobacco Inc., priority 1997, dated 2015)
# Biological target: T1, CETP (Homo sapiens, UniProt P11597)
# T1 sequence (P11597 18-493): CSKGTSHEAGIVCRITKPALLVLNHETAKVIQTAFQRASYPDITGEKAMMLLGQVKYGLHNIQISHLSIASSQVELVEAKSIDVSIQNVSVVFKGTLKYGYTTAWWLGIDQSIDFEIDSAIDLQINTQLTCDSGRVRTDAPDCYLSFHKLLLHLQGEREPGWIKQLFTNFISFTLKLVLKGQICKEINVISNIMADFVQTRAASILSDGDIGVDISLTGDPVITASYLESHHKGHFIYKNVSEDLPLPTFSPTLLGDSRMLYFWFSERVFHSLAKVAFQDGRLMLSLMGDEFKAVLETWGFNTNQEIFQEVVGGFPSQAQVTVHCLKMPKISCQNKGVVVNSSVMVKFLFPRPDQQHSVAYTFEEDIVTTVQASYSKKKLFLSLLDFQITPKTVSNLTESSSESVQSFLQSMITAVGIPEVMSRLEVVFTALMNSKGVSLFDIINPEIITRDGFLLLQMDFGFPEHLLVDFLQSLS
# Experiment: In vitro CETP activity inhibitory effect in whole plasma
# Format: biochemical
# Parameters: Plasma containing [^3H]CE-HDL3 (600,000 dpm/ml) was prepared by adding donor lipoprotein obtained in the above (1) to plasma from healthy subjects; from tissue; host or cells: whole plasma of healthy subjects
# Settings: plasma from healthy subjects containing [3H]CE-HDL3, incubated 4 hours at 37° C.; read-out: CETP activity inhibition in whole plasma IC50
# Protocol: The fraction thus obtained was dialyzed against a PBS solution [10 mM Na2HPO4/10 mM NaH2PO4/0.15 M NaCl/1 mM EDTA (pH 7.4)]. Then, tritium-labeled cholesterol (10 nM) (50.3 Ci/mM) was dissolved in 95% ethanol and added gradually to the above HDL3 fraction under stirring. The solution was incubated for 18 hours at 37° C. […] After incubation, KBr was added and specific gravity was adjusted to d=1.21 g/ml. […] A sample solution was prepared using a 1:1 solution of N-methylpyrrolidone and polyethyleneglycol 400 as a solvent. […] Based on the inhibition rate (%) of CETP activity, IC50 value of each sample was calculated.
row,IC50 [µM],SMILES
1,6,COC(=O)CCC(=O)Sc1cc(Cl)c(Cl)cc1NC(=O)C1(CCC(C)C)CCCCC1 [Example 25-79]
2,5,CC(C)CCC1(C(=O)Nc2cc(Cl)c(Cl)cc2SC(=O)CN(C)C)CCCCC1 [Example 25-80]
3,14,CC(C)CCC1(C(=O)Nc2cc(Cl)c(Cl)cc2SC(=O)c2ccccc2)CCCCC1 [Example 25-81]
4,17,CC(C)CCC1(C(=O)Nc2cc(Cl)c(Cl)cc2SC(=O)C2CCCCC2)CCCCC1 [Example 25-82]
5,18,CC(C)CCC1(C(=O)Nc2cc(Cl)c(Cl)cc2SC(=O)Cc2ccccc2)CCCCC1 [Example 25-83]
6,7,CCC(=O)Sc1cc(Cl)c(Cl)cc1NC(=O)C1(CCC(C)C)CCCCC1 [Example 25-85]
7,10,COCC(=O)Sc1cc(Cl)c(Cl)cc1NC(=O)C1(CCC(C)C)CCCCC1 [Example 25-86]
8,6,CC(C)CCC1(C(=O)Nc2cc(Cl)c(Cl)cc2SC(=O)c2cccnc2)CCCC1 [Example 25-87]
9,22,COC(=O)Sc1cc(Cl)c(Cl)cc1NC(=O)C1(CCC(C)C)CCCCC1 [Example 25-91]
10,19,CCSC(=O)Sc1ccc(C(F)(F)F)cc1NC(=O)C1(C)CCCCC1 [Example 25-92]
11,22,CC1(C(=O)Nc2cc(C(F)(F)F)ccc2SC(=O)Sc2ccccc2)CCCCC1 [Example 25-93]
12,18,CC(C)(C)C(=O)Nc1ccccc1SC(=O)Sc1ccccc1NC(=O)C(C)(C)C [Example 25-94]
13,18,CC1(C(=O)Nc2ccccc2SC(=O)Sc2ccccc2NC(=O)C2(C)CCCCC2)CCCCC1 [Example 25-95]
14,8,CC1(C(=O)Nc2cc(C(F)(F)F)ccc2SC(=O)Sc2ccc(C(F)(F)F)cc2NC(=O)C2(C)CCCCC2)CCCCC1 [Example 25-96]
15,8,CC(C)CCC1(C(=O)Nc2ccccc2SC(=O)NC(C)C)CCCCC1 [Example 25-98]
16,6,CCNC(=O)Sc1ccccc1NC(=O)C1(CCC(C)C)CCCCC1 [Example 25-99]
17,12,CC(C)CCC1(C(=O)Nc2cc(Cl)c(Cl)cc2SC(=O)NC(C)C)CCCCC1 [Example 25-103]
18,9,CCNC(=O)Sc1cc(Cl)c(Cl)cc1NC(=O)C1(CCC(C)C)CCCCC1 [Example 25-104]
19,72,CC(C)(C)C(=O)Sc1ccccc1NC(=O)C1(C)CCCCC1 [Example 30]
20,32,CC(C)(C)C(=O)Nc1ccccc1SC(=O)Cc1ccccc1 [Example 31]
21,32,CC1(C(=O)Nc2ccccc2SC(=O)c2ccccc2)CCCCC1 [Example 32]
22,4,CC(C)CCC1(C(=O)Nc2ccccc2SC(=O)c2cccnc2)CCCCC1 [Example 35]
23,49,CC(C)CCC1(C(=O)Nc2ccccc2SC(=O)C2CCCCC2)CCCCC1 [Example 43]

row,IC50 [µM],SMILES
1,23,CC(C)CCC1(C(=O)Nc2ccccc2SC(=O)c2ccccc2)CCCCC1 [Example 44]
2,2,CC(C)CCC1(C(=O)Nc2cc(Cl)c(Cl)cc2SC(=O)C(C)(C)C)CCCCC1 [Example 50]
3,16,CC(C)CCC1(C(=O)Nc2cc(Cl)c(Cl)cc2SC(=O)C(C)(C)C)CCCC1 [Example 51]
4,8,CC(C)CCC1(C(=O)Nc2ccccc2SC(=O)CCCCC(=O)O)CCCCC1 [Example 53]
5,12,COC(=O)Sc1ccccc1NC(=O)C1(CCC(C)C)CCCCC1 [Example 54]
6,65,CC1(C(=O)Nc2ccccc2SC(=O)Sc2ccccc2)CCCCC1 [Example 55]
7,41,CC(C)(C)C(=O)Nc1cc(C(F)(F)F)ccc1SC(=O)C(C)(C)C [Example 57]
8,7,"CC(C)C1(C(=O)Nc2cc(Cl)c(Cl)cc2SC(=O)C(C)(C)C)CCCCC1 [Example 66, S-[4,5-dichloro-2-(1-isopropylcyclohexanecarbonyl-amino)phenyl]2,2-dimethylthiopropionate]"
9,24,CC1(C(=O)Nc2cc(Cl)ccc2SC(=O)Cc2ccccc2)CCCCC1 [Example 66-3]
10,28,CC(C)(C)C(=O)Sc1ccc(Cl)cc1NC(=O)C1(C)CCCCC1 [Example 66-4]
11,9,CC(C)(C)C(=O)Sc1cc(Cl)c(Cl)cc1NC(=O)C1(C)CCCCC1 [Example 66-9]
12,23,CC(=O)N[C@@H](Cc1ccccc1)C(=O)Sc1cc(Cl)c(Cl)cc1NC(=O)C1(C)CCCCC1 [Example 66-10]
13,22,CC(=O)N[C@H](Cc1ccccc1)C(=O)Sc1cc(Cl)c(Cl)cc1NC(=O)C1(C)CCCCC1 [Example 66-11]
14,17,CC1(C(=O)Nc2cc(Cl)c(Cl)cc2SC(=O)[C@@H](N)Cc2ccccc2)CCCCC1 [Example 66-12]
15,11,CC(C)CC(CC(C)C)C(=O)Nc1cc(Cl)c(Cl)cc1SC(=O)C(C)(C)C [Example 66-14]
16,8,CCCC1(C(=O)Nc2cc(Cl)c(Cl)cc2SC(=O)C(C)(C)C)CCCCC1 [Example 66-16]
17,11,CC(C)(C)C(=O)Sc1cc(Cl)c(Cl)cc1NC(=O)C1(C2CCCCC2)CCCCC1 [Example 66-18]
18,41,CC(C)(C)C(=O)Sc1cc(Cl)c(Cl)cc1NC(=O)c1ccncc1 [Example 66-21]
19,19,CC(C)(C)C(=O)Sc1cc(Cl)c(Cl)cc1NC(=O)[C@]12CCCC[C@@H]1CCCC2 [Example 66-22]
20,13,CC(C)(C)C(=O)Sc1cc(Cl)c(Cl)cc1NC(=O)[C@]12CCCC[C@@H]1CCC2 [Example 66-23]
21,12,CC(C)(C)C(=O)Sc1cc(Cl)c(Cl)cc1NC(=O)[C@@]12CCCC[C@@H]1CCC2 [Example 66-24]
22,19,CC(C)(C)C(=O)Sc1cc(Cl)c(Cl)cc1NC(=O)C1CCCCC1 [Example 66-25]
23,8,CC(C)(C)C(=O)Sc1cc(Cl)c(Cl)cc1NC(=O)C1CCC(C(C)(C)C)CC1 (stereo not drawn) [Example 66-26]

row,IC50 [µM],SMILES
1,9,CC(C)(C)C(=O)Sc1cc(Cl)c(Cl)cc1NC(=O)[C@H]1CC[C@H](C(C)(C)C)CC1 [Example 66-27]
2,18,CC(C)(C)C(=O)Sc1cc(Cl)c(Cl)cc1NC(=O)CC1CCCCC1 [Example 66-28]
3,7,CCCCC1(C(=O)Nc2cc(Cl)c(Cl)cc2SC(=O)C(C)(C)C)CCCCC1 [Example 66-29]
4,19,CC(C)(C)C(=O)Sc1cc(Cl)c(Cl)cc1NC(=O)[C@H]1CC[C@H](C)CC1 [Example 66-30]
5,27,CC(C)(C)C(=O)Sc1cc(Cl)c(Cl)cc1NC(=O)[C@H]1CC[C@H](C2CCCCC2)CC1 [Example 66-31]
6,22,CC(C)[C@H]1CC[C@H](C(=O)Nc2cc(Cl)c(Cl)cc2SC(=O)C(C)(C)C)CC1 [Example 66-32]
7,19,CCC[C@H]1CC[C@H](C(=O)Nc2cc(Cl)c(Cl)cc2SC(=O)C(C)(C)C)CC1 [Example 66-33]
8,22,CCCCC[C@H]1CC[C@H](C(=O)Nc2cc(Cl)c(Cl)cc2SC(=O)C(C)(C)C)CC1 [Example 66-34]
9,26,CC(C)C(C(=O)Nc1cc(Cl)c(Cl)cc1SC(=O)C(C)(C)C)C1CCCCC1 (stereo not drawn) [Example 66-38]
10,42,CC(C)CC(C(=O)Nc1cc(Cl)c(Cl)cc1SC(=O)C(C)(C)C)C1CCCCC1 (stereo not drawn) [Example 66-40]
11,25,CC(C)(C)C(=O)Sc1cc(Cl)c(Cl)cc1NC(=O)C(C)(C)C1CCCCC1 [Example 66-41]
12,10,CC(C)CC1(C(=O)Nc2cc(Cl)c(Cl)cc2SC(=O)C(C)(C)C)CCCCC1 [Example 66-42]
13,23,CC(C)CCCC1(C(=O)Nc2cc(Cl)c(Cl)cc2SC(=O)C(C)(C)C)CCCCC1 [Example 66-43]
14,35,CC(C)(C)CC1(C(=O)Nc2cc(Cl)c(Cl)cc2SC(=O)C(C)(C)C)CCCCC1 [Example 66-46]
15,11,CC(C)(C)C(=O)Sc1cc(Cl)c(Cl)cc1NC(=O)C1(CCC2CC2)CCCCC1 [Example 66-48]
16,40,CC(C)CC1(C(=O)Nc2cc(Cl)c(Cl)cc2SC(=O)C(C)(C)C)CCCC1 [Example 66-49]
17,45,CC(C)(C)C(=O)Sc1cc(Cl)c(Cl)cc1NC(=O)C1(CC2CCCCC2)CCCC1 [Example 66-51]
18,46,COC(=O)Sc1cc(Cl)c(Cl)cc1NC(=O)C1(C)CCCCC1 [Example 66-52]
19,15,CCNC(=O)Sc1cc(Cl)c(Cl)cc1NC(=O)C1(C)CCCCC1 [Example 66-53]
20,9,CC(C)(C)C(=O)Sc1cc(Cl)c(Cl)cc1NC(=O)C1(C2CC2)CCCCC1 [Example 67]
21,10,CC(C(=O)Nc1cc(Cl)c(Cl)cc1SC(=O)C(C)(C)C)C1CCCCC1 (stereo not drawn) [Example 68]
22,6,CCCCCC1(C(=O)Nc2cc(Cl)c(Cl)cc2SC(=O)C(C)(C)C)CCCCC1 [Example 69]

row,SMILES,IC50 [µM]
1,CC(C)(C)C(=O)Sc1cc(Cl)c(Cl)cc1NC(=O)C1C(C)(C)C1(C)C [Example 66-17],18
